{"source": "paper PMC3140810", "about": "(International Journal of Women's Health, 2011)", "target": "CYP3A4 (Homo sapiens, UniProt P08684)", "sequence (P08684 2-503)": "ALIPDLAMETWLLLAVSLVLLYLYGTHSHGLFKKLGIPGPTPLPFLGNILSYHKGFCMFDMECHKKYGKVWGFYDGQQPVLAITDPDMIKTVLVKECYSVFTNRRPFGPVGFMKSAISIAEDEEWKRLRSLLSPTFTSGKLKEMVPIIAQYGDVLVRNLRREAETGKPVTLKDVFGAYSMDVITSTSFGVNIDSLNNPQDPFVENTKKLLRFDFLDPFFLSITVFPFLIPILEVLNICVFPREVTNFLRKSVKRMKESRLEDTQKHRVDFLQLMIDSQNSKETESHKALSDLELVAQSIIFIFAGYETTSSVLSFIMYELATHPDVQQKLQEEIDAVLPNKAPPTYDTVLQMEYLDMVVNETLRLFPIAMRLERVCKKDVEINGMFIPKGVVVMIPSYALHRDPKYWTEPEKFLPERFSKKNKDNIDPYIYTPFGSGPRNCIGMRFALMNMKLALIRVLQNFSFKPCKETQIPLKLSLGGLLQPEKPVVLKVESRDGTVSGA", "assay": "LC-MS/MS of 1-hydroxymidazolam, human liver microsomes", "assay_type": "biochemical", "data": [{"smiles": "O=c1c(-c2ccc(O)cc2)coc2cc(O)cc(O)c12", "note": "[genistein]", "values": [{"measurement": "Liver microsome inhibition genistein (25 μM)", "result": 19, "unit": "%"}]}]}
